A value given as a limit tells only on which side of the number the result lay.

In data set [1] the test system is M. tuberculosis parental, sdh1 and sdh2 mutant strains.
Data set [2] concerns M. tuberculosis Δsdh1 mutant. It is filed as cell-based. The conditions noted are these: aerobic, at two and five days.
Data set [3] deals with INH-resistant M. tuberculosis strains (H37Rv inhA S94A, H37Rv PmabAinhA c-15t, H37Rv katG g371del). It counts as cell-based, Mycobacterium tuberculosis.
The test system of data set [4] is M. tuberculosis Δsdh1 or Δsdh2 mutants. It is filed as cell-based. The conditions noted are these: hypoxic conditions.
The test system of data set [5] is M. tuberculosis H37Rv rpoB H445R. It is filed as cell-based, Mycobacterium tuberculosis.
Another data set deals with M. tuberculosis H37Rv. It is filed as cell-based, Mycobacterium tuberculosis.

`N#CC(C#N)=NNc1cccc(Cl)c1` [CCCP, carbonyl cyanide 3-chlorophenylhydrazone]: in data set [1], the “time after which culture was unable to be rescued” value fell in the range of 22 to 24 days and the “viable cells at end of experiment” value is listed as “no viable cells remained”. In data set [1] (Mycobacterium tuberculosis), the “parental inoculum remaining viable” value was 0.1%.
Take `CC[C@@H](CO)NCCN[C@@H](CC)CO` [EMB, Ethambutol, reference compound]: the “clearing of the Δsdh1 mutant by single drugs vs parental” value in data set [2] was “this was not true”.
Same read-out and setting: to `CCc1cc(C(N)=S)ccn1` [ETH] belongs “cleared more rapidly”.
Turning to `NNC(=O)c1ccncc1` [INH, Isoniazid], the “growth of INH-resistant strains” value in data set [3] is reported as “not impaired”. Besides, in data set [2], the “clearing of the Δsdh1 mutant by single drugs vs parental” value is reported as “this was not true”. Also, the “killing of Δsdh1 or Δsdh2 mutants compared to the parental strain” value in data set [4] is “no effect”.
With `CN[C@@H]1[C@H](O[C@H]2[C@H](O[C@H]3[C@H](O)[C@@H](O)[C@H](N=C(N)N)[C@@H](O)[C@@H]3N=C(N)N)O[C@@H](C)[C@]2(O)C=O)O[C@@H](CO)[C@H](O)[C@H]1O` [STR], in data set [2], the “clearing of the Δsdh1 mutant by single drugs vs parental” value is recorded as “this was not true”.
As for `N[C@@H](CS)C(=O)O` [cysteine], the “growth of H37Rv rpoB H445R” value in data set [5] is “grew well”. Besides, the “growth of INH-resistant strains” value in data set [3] was “not impaired”. In the data set on M. tuberculosis H37Rv, the “Frequency of mutation for INH, Average” value is given as 7 × 10^−7; the “Frequency of mutation for RIF” value was 2 × 10^−8; the “Frequency of mutation for RIF, Average” value was 2 × 10^−8; the “decrease in the frequency of spontaneous INH-resistant mutants” value was no more than 10 fold. Also, in the data set with M. tuberculosis H37Rv, the “decrease in the frequency of spontaneous RIF-resistant mutants” value worked out at 3 fold.

For the origin of these results see patent US20160298165A1 (priority 2013, published 2016).
